{
  "source": "PubChem BioAssay AID270",
  "about": "(DTP/NCI, 2004)",
  "tested_on": "BDF1 mice, s.c. Lewis lung carcinoma, T/C %",
  "assay": "NCI In Vivo Anticancer Drug Screen. Data for tumor model Lewis Lung Carcinoma (subcutaneous) in B6D2F1 (BDF1) mice",
  "procedure,_shortened": "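Readout: survival or tumor size, expressed as treated (T) over vehicle control (C). Transplantable tumor implanted in mice; compound given to the treated group.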",
  "note": "Several values for one entry are separate records, joined by “and”; a condition that tells them apart may be missing. Equal entries are not always repeated. Records with an inconclusive call do not appear.",
  "data": [
    {"smiles": "O=S(=O)(c1ccc(NC(=S)N/N=C/c2ccccc2O)cc1)N1CCCCC1", "values": [
      {"measurement": "T/C", "setting": "endpoint: median survival time, dose: 12.5 mg/kg/injection, schedule: Q01DX009 (ip), vehicle: olive oil, sesame oil, peanut oil, higher = longer survival", "result": "98 % of control"},
      {"measurement": "T/C", "setting": "endpoint: median survival time, dose: 25.0 mg/kg/injection, schedule: Q01DX009 (ip), vehicle: olive oil, sesame oil, peanut oil, higher = longer survival", "result": "90 % of control"},
      {"measurement": "T/C", "setting": "endpoint: median survival time, dose: 50.0 mg/kg/injection, schedule: Q01DX009 (ip), vehicle: olive oil, sesame oil, peanut oil, higher = longer survival", "result": "87 % of control"},
      {"measurement": "T/C", "setting": "endpoint: median survival time, dose: 200.0 mg/kg/injection, schedule: Q01DX009 (ip), vehicle: olive oil, sesame oil, peanut oil, higher = longer survival", "result": "91 % of control"}
    ]},
    {"smiles": "CC(=O)OC1CCC(NC(=O)N(CCF)N=O)CC1", "note": "(stereo not given)", "values": [
      {"measurement": "T/C", "setting": "endpoint: median survival time, dose: 24.0 mg/kg/injection, schedule: Q01DX001 (ip), vehicle: saline with Tween-80, higher = longer survival", "result": "100 % of control"},
      {"measurement": "T/C", "setting": "endpoint: median survival time, dose: 36.0 mg/kg/injection, schedule: Q01DX001 (ip), vehicle: saline with Tween-80, higher = longer survival", "result": "102 % of control"}
    ]},
    {"smiles": "CN(C)CC(Cl)CCl", "note": "(stereo not given)", "values": [
      {"measurement": "T/C", "setting": "endpoint: median survival time, dose: 50.0 mg/kg/injection, schedule: Q01DX009 (ip), vehicle: saline, higher = longer survival", "result": "117 % of control"},
      {"measurement": "T/C", "setting": "endpoint: median survival time, dose: 100.0 mg/kg/injection, schedule: Q01DX009 (ip), vehicle: saline, higher = longer survival", "result": "122 % of control"},
      {"measurement": "T/C", "setting": "endpoint: median survival time, dose: 200.0 mg/kg/injection, schedule: Q01DX009 (ip), vehicle: saline, higher = longer survival", "result": "105 % of control"}
    ]},
    {"smiles": "Nc1nc(N)c(N=O)c(Nc2ccc(Cl)c(Cl)c2)n1", "values": [
      {"measurement": "T/C", "setting": "endpoint: mean tumor weight, dose: 100.0 mg/kg/injection, schedule: Q01DX011 (ip), vehicle: carboxymethylcellulose (CMC), higher = larger tumour", "result": "23 % of control and 32 % of control"},
      {"measurement": "T/C", "setting": "endpoint: mean tumor weight, dose: 200.0 mg/kg/injection, schedule: Q01DX011 (ip), vehicle: carboxymethylcellulose (CMC), higher = larger tumour", "result": "31 % of control and 52 % of control"},
      {"measurement": "T/C", "setting": "endpoint: mean tumor weight, dose: 400.0 mg/kg/injection, schedule: Q01DX011 (ip), vehicle: carboxymethylcellulose (CMC), higher = larger tumour", "result": "32 % of control and 46 % of control"}
    ]},
    {"smiles": "OCCc1ccccc1", "values": [
      {"measurement": "T/C", "setting": "endpoint: mean tumor weight, dose: 62.5 mg/kg/injection, schedule: Q01DX011 (ip), vehicle: saline, higher = larger tumour", "result": "95 % of control"},
      {"measurement": "T/C", "setting": "endpoint: mean tumor weight, dose: 125.0 mg/kg/injection, schedule: Q01DX011 (ip), vehicle: saline, higher = larger tumour", "result": "107 % of control"},
      {"measurement": "T/C", "setting": "endpoint: mean tumor weight, dose: 250.0 mg/kg/injection, schedule: Q01DX011 (ip), vehicle: saline, higher = larger tumour", "result": "75 % of control"}
    ]},
    {"smiles": "CNC(C)C(O)c1ccccc1", "note": "(stereo not given)", "values": [
      {"measurement": "T/C", "setting": "endpoint: mean tumor weight, dose: 66.6 mg/kg/injection, schedule: Q01DX011 (ip), vehicle: saline, higher = larger tumour", "result": "109 % of control"}
    ]},
    {"smiles": "CC[n+]1ccc(Nc2ccc(/C=C/c3ccc4cc(Nc5cc[n+](CC)cc5)ccc4[n+]3CC)cc2)cc1", "values": [
      {"measurement": "T/C", "setting": "endpoint: median survival time, dose: 2.5 mg/kg/injection, schedule: Q01DX009 (ip), vehicle: saline, higher = longer survival", "result": "95 % of control"},
      {"measurement": "T/C", "setting": "endpoint: median survival time, dose: 5.0 mg/kg/injection, schedule: Q01DX009 (ip), vehicle: saline, higher = longer survival", "result": "100 % of control"},
      {"measurement": "T/C", "setting": "endpoint: median survival time, dose: 10.0 mg/kg/injection, schedule: Q01DX009 (ip), vehicle: saline, higher = longer survival", "result": "91 % of control"}
    ]},
    {"smiles": "COC(=O)c1ccccc1NC(c1ccccn1)c1ccc2cccnc2c1O", "note": "(stereo not given)", "values": [
      {"measurement": "T/C", "setting": "endpoint: mean tumor weight, dose: 10.0 mg/kg/injection, schedule: Q01DX011 (ip), vehicle: carboxymethylcellulose (CMC), higher = larger tumour", "result": "55 % of control"},
      {"measurement": "T/C", "setting": "endpoint: mean tumor weight, dose: 25.0 mg/kg/injection, schedule: Q01DX011 (ip), vehicle: carboxymethylcellulose (CMC), higher = larger tumour", "result": "111 % of control"},
      {"measurement": "T/C", "setting": "endpoint: mean tumor weight, dose: 37.0 mg/kg/injection, schedule: Q01DX011 (ip), vehicle: carboxymethylcellulose (CMC), higher = larger tumour", "result": "115 % of control"},
      {"measurement": "T/C", "setting": "endpoint: mean tumor weight, dose: 50.0 mg/kg/injection, schedule: Q01DX011 (ip), vehicle: carboxymethylcellulose (CMC), higher = larger tumour", "result": "56 % of control"},
      {"measurement": "T/C", "setting": "endpoint: mean tumor weight, dose: 62.0 mg/kg/injection, schedule: Q01DX011 (ip), vehicle: carboxymethylcellulose (CMC), higher = larger tumour", "result": "30 % of control"},
      {"measurement": "T/C", "setting": "endpoint: mean tumor weight, dose: 70.0 mg/kg/injection, schedule: Q01DX011 (ip), vehicle: carboxymethylcellulose (CMC), higher = larger tumour", "result": "78 % of control"},
      {"measurement": "T/C", "setting": "endpoint: mean tumor weight, dose: 75.0 mg/kg/injection, schedule: Q01DX011 (ip), vehicle: carboxymethylcellulose (CMC), higher = larger tumour", "result": "86 % of control"},
      {"measurement": "T/C", "setting": "endpoint: mean tumor weight, dose: 125.0 mg/kg/injection, schedule: Q01DX011 (ip), vehicle: carboxymethylcellulose (CMC), higher = larger tumour", "result": "33 % of control"},
      {"measurement": "T/C", "setting": "endpoint: mean tumor weight, dose: 150.0 mg/kg/injection, schedule: Q01DX011 (ip), vehicle: carboxymethylcellulose (CMC), higher = larger tumour", "result": "80 % of control"},
      {"measurement": "T/C", "setting": "endpoint: mean tumor weight, dose: 250.0 mg/kg/injection, schedule: Q01DX011 (ip), vehicle: carboxymethylcellulose (CMC), higher = larger tumour", "result": "76 % of control"},
      {"measurement": "T/C", "setting": "endpoint: mean tumor weight, dose: 300.0 mg/kg/injection, schedule: Q01DX011 (ip), vehicle: carboxymethylcellulose (CMC), higher = larger tumour", "result": "62 % of control"},
      {"measurement": "T/C", "setting": "endpoint: mean tumor weight, dose: 500.0 mg/kg/injection, schedule: Q01DX011 (ip), vehicle: carboxymethylcellulose (CMC), higher = larger tumour", "result": "53 % of control"}
    ]},
    {"smiles": "CCOC(=O)C(Br)CC", "note": "(stereo not given)", "values": [
      {"measurement": "T/C", "setting": "endpoint: mean tumor weight, dose: 148.0 mg/kg/injection, schedule: Q01DX011 (ip), vehicle: other, higher = larger tumour", "result": "77 % of control"}
    ]},
    {"smiles": "C/C=C1\\CN(C)[C@H]2Cc3c([nH]c4ccccc34)[C@@H](c3cc4[nH]c5c(c4cc3OC)CCN3C[C@H]4C[C@H](CC)[C@H]3[C@@]5(C(=O)OC)C4)C[C@H]1C2C(=O)OC", "note": "(stereo not given in full)", "values": [
      {"measurement": "T/C", "setting": "endpoint: mean tumor weight, dose: 18.0 mg/kg/injection, schedule: Q01DX011 (ip), vehicle: water, higher = larger tumour", "result": "66 % of control"},
      {"measurement": "T/C", "setting": "endpoint: mean tumor weight, dose: 27.0 mg/kg/injection, schedule: Q01DX011 (ip), vehicle: water, higher = larger tumour", "result": "81 % of control"},
      {"measurement": "T/C", "setting": "endpoint: mean tumor weight, dose: 40.0 mg/kg/injection, schedule: Q01DX011 (ip), vehicle: water, higher = larger tumour", "result": "62 % of control"}
    ]}
  ]
}
